# Active and inactive are the calls of the source. The calls are words filed in the database; no cut-off is given here.
# How the values were obtained:
# Pseudomonas aeruginosa [1] = test: Bactericidal activity against mutS::lox-deficient Pseudomonas aeruginosa PAOMS biofilm assessed as increase in viable cells at day 7 relative to wild-type; format: functional
# Pseudomonas aeruginosa [2] = test: Bactericidal activity against Pseudomonas aeruginosa PAO1 biofilm assessed as reduction in bacterial load at => 4 ug/ml upto 7 days; format: functional, organism-based
# Pseudomonas aeruginosa [3] = test: Bactericidal activity against mutS::lox-deficient Pseudomonas aeruginosa PAOMS biofilm assessed as increase in viable cells at 4 ug/ml for 7 days; format: functional, organism-based
# Pseudomonas aeruginosa [4] = test: Bactericidal activity against Pseudomonas aeruginosa PAO1 biofilm assessed as reduction in bacterial load at 256 ug/ml for 7 days measured on day 1; format: functional
# Pseudomonas aeruginosa [5] = test: Antimicrobial activity against mexD gene-deficient Pseudomonas aeruginosa […] assessed as increase in viable cells at 0.5 to 4 ug/ml after 24 hrs relative to wild-type; format: functional
# Pseudomonas aeruginosa [6] = test: Antimicrobial activity against nfxB gene-deficient Pseudomonas aeruginosa PAONB assessed as increase in viable cells at 0.5 to 4 ug/ml after 24 hrs relative to wild-type; format: functional
# Pseudomonas aeruginosa [7] = test: Antimicrobial activity against Pseudomonas aeruginosa PAO1 planktonic cells by microdilution method; format: functional
# Pseudomonas aeruginosa [8] = test: Bactericidal activity against mutS::lox-deficient Pseudomonas aeruginosa PAOMS biofilm assessed as reduction in bacterial load at 0.5 ug/ml for 7 days measured on day 1; format: functional
# Pseudomonas aeruginosa [9] = test: Bactericidal activity against mucA::lox, mutS::lox-deficient Pseudomonas aeruginosa PAOMSA biofilm assessed as increase in viable cells at 16 ug/ml; format: functional, organism-based
# Pseudomonas aeruginosa [10] = test: Bactericidal activity against mucA::lox, mutS::lox-deficient Pseudomonas aeruginosa PAOMSA biofilm assessed as increase in viable cells at 4 ug/ml for 7 days; format: functional, organism-based
# Pseudomonas aeruginosa [11] = test: Bactericidal activity against mutS::lox-deficient Pseudomonas aeruginosa PAOMS biofilm assessed as reduction in bacterial load at 256 ug/ml for 7 days measured on day 1; format: functional
# Pseudomonas aeruginosa [12] = test: Bactericidal activity against mutS::lox-deficient Pseudomonas aeruginosa PAOMS biofilm assessed as increase in viable cells at 4 ug/ml for 4 days; format: functional, organism-based
# Pseudomonas aeruginosa [13] = test: Bactericidal activity against mucA::lox, mutS::lox-deficient Pseudomonas aeruginosa PAOMSA biofilm assessed as increase in viable cells at 4 ug/ml for 4 days; format: functional, organism-based
# Pseudomonas aeruginosa [14] = test: Antimicrobial activity against mutS::lox-deficient Pseudomonas aeruginosa PAOMS planktonic cells by microdilution method; format: functional
# Pseudomonas aeruginosa [15] = test: Antimicrobial activity against mucA::lox-deficient Pseudomonas aeruginosa PAOMA planktonic cells by microdilution method; format: functional
# Pseudomonas aeruginosa [16] = test: Bactericidal activity against Pseudomonas aeruginosa PAO1 biofilm assessed as reduction in bacterial load at 0.5 ug/ml for 7days measured on day 1; format: functional
# Pseudomonas aeruginosa [17] = test: Bactericidal activity against mucA::lox-deficient Pseudomonas aeruginosa PAOMA biofilm assessed as reduction in bacterial load at => 4 ug/ml upto 7 days; format: functional, organism-based
# Pseudomonas aeruginosa [18] = test: Antimicrobial activity against mucA::lox, mutS::lox-deficient Pseudomonas aeruginosa PAOMSA planktonic cells by microdilution method; format: functional
# Pseudomonas aeruginosa [19] = test: Bactericidal activity against mucA::lox, mutS::lox-deficient Pseudomonas aeruginosa PAOMSA biofilm assessed as reduction in bacterial load at 256 ug/ml for 7 days measured on day 1; format: functional
# Pseudomonas aeruginosa [20] = test: Bactericidal activity against mucA::lox, mutS::lox-deficient Pseudomonas aeruginosa PAOMSA biofilm assessed as increase in viable cells relative to […]; format: functional
# Pseudomonas aeruginosa [21] = test: Antimicrobial activity against mutS::lox-deficient Pseudomonas aeruginosa PAOMSA biofilm harboring nfxB T86C mutant gene selected at 4 ug/ml of azithromycin after 4 passages by Etest method; format: functional
# Pseudomonas aeruginosa [22] = test: Antimicrobial activity against mutS::lox,nfxB gene-deficient Pseudomonas aeruginosa PAOMSNB biofilm by Etest method; format: functional
# Pseudomonas aeruginosa [23] = test: Antimicrobial activity against mutS::lox-deficient Pseudomonas aeruginosa PAOMSB biofilm harboring nfxB T77C mutant gene selected at 4 ug/ml of azithromycin after 6 passages by Etest method; format: functional
# Pseudomonas aeruginosa [24] = test: Antimicrobial activity against Pseudomonas aeruginosa PAO1 A biofilm harboring nfxB T248C mutant gene selected at 4 ug/ml of azithromycin after 4 passages by Etest method; format: functional
# Pseudomonas aeruginosa [25] = test: Antimicrobial activity against mucA::lox, mutS::lox-deficient Pseudomonas aeruginosa PAOMSAA biofilm harboring nfxB C89T mutant gene selected at 0.5 ug/ml of azithromycin after 3 passages by Etest method; format: functional
# Pseudomonas aeruginosa [26] = test: Antimicrobial activity against mucA::lox-deficient Pseudomonas aeruginosa PAOMAB biofilm harboring nfxB G125T mutant gene selected at 0.5 ug/ml of azithromycin after 1 passages by Etest method; format: functional
# Pseudomonas aeruginosa [27] = test: Antimicrobial activity against mutS::lox-deficient Pseudomonas aeruginosa PAOMSB biofilm harboring nfxB T41C mutant gene selected at 4 ug/ml of azithromycin after 3 passages by Etest method; format: functional
# Pseudomonas aeruginosa [28] = test: Antimicrobial activity against mucA::lox, mutS::lox-deficient Pseudomonas aeruginosa PAOMSAB biofilm harboring nfxB T544C mutant gene selected at 4 ug/ml of azithromycin after 1 passages by Etest method; format: functional
# Pseudomonas aeruginosa [29] = test: Antimicrobial activity against mutS::lox-deficient Pseudomonas aeruginosa PAOMSB biofilm harboring nfxB C116T mutant gene selected at 4 ug/ml of azithromycin after 5 passages by Etest method; format: functional
# Pseudomonas aeruginosa [30] = test: Antimicrobial activity against mutS::lox-deficient Pseudomonas aeruginosa PAOMSA biofilm harboring nfxB T533C mutant gene selected at 4 ug/ml of azithromycin after 2 passages by Etest method; format: functional
# Pseudomonas aeruginosa [31] = test: Antimicrobial activity against mucA::lox, mutS::lox-deficient Pseudomonas aeruginosa PAOMSAB biofilm harboring nfxB C25T mutant gene selected at 1 ug/ml of azithromycin after 2 passages by Etest method; format: functional
# Pseudomonas aeruginosa [32] = test: Antimicrobial activity against mucA::lox-deficient Pseudomonas aeruginosa PAOMA biofilm by Etest method; format: functional
# Pseudomonas aeruginosa [33] = test: Antimicrobial activity against nfxB gene-deficient Pseudomonas aeruginosa PAONB biofilm by Etest method; format: functional
# Pseudomonas aeruginosa [34] = test: Antimicrobial activity against mucA::lox, mutS::lox-deficient Pseudomonas aeruginosa PAOMSAA biofilm harboring nfxB C89T mutant gene selected at 4 ug/ml of azithromycin after 6 passages by Etest method; format: functional
# Pseudomonas aeruginosa [35] = test: Antimicrobial activity against mutS::lox-deficient Pseudomonas aeruginosa PAOMSA biofilm harboring nfxB T86C mutant gene selected at 4 ug/ml of azithromycin after 3 passages by Etest method; format: functional
# Pseudomonas aeruginosa [36] = test: Antimicrobial activity against mutS::lox-deficient Pseudomonas aeruginosa PAOMSB biofilm harboring nfxB T562C mutant gene selected at 4 ug/ml of azithromycin after 4 passages by Etest method; format: functional
# Pseudomonas aeruginosa [37] = test: Antimicrobial activity against mutS::lox,mexD::lox-deficient Pseudomonas aeruginosa PAOMSMxD biofilm by Etest method; format: functional
# Pseudomonas aeruginosa [38] = test: Antimicrobial activity against mexD::lox-deficient Pseudomonas aeruginosa PAOMxD biofilm by Etest method; format: functional
# Pseudomonas aeruginosa [39] = test: Antimicrobial activity against mucA::lox, mutS::lox-deficient Pseudomonas aeruginosa PAOMSA biofilm by Etest method; format: functional
# Pseudomonas aeruginosa [40] = test: Antimicrobial activity against mucA::lox, mutS::lox-deficient Pseudomonas aeruginosa PAOMSAA biofilm harboring nfxB T86C mutant gene selected at 4 ug/ml of azithromycin after 2 passages by Etest method; format: functional
# Pseudomonas aeruginosa [41] = test: Antimicrobial activity against mutS::lox-deficient Pseudomonas aeruginosa PAOMSA biofilm harboring nfxB G539A mutant gene selected at 4 ug/ml of azithromycin after 6 passages by Etest method; format: functional
# Pseudomonas aeruginosa [42] = test: Antimicrobial activity against mucA::lox-deficient Pseudomonas aeruginosa PAOMAA biofilm harboring nfxB C25T mutant gene selected at 1 ug/ml of azithromycin after 2 passages by Etest method; format: functional
# Pseudomonas aeruginosa [43] = test: Antimicrobial activity against mucA::lox, mutS::lox-deficient Pseudomonas aeruginosa PAOMSAB biofilm harboring nfxB T86C mutant gene selected at 4 ug/ml of azithromycin after 2 passages by Etest method; format: functional
# Pseudomonas aeruginosa [44] = test: Antimicrobial activity against mutS::lox-deficient Pseudomonas aeruginosa PAOMSA biofilm harboring nfxB C116T mutant gene selected at 1 ug/ml of azithromycin after 1 passages by Etest method; format: functional
# Pseudomonas aeruginosa [45] = test: Antimicrobial activity against mutS::lox-deficient Pseudomonas aeruginosa PAOMSB biofilm harboring nfxB T380C mutant gene selected at 0.5 ug/ml of azithromycin after 2 passages by Etest method; format: functional
# Pseudomonas aeruginosa [46] = test: Antimicrobial activity against mucA::lox, mutS::lox-deficient Pseudomonas aeruginosa PAOMSAA biofilm harboring nfxB T77C mutant gene selected at 4 ug/ml of azithromycin after 3 passages by Etest method; format: functional
# Pseudomonas aeruginosa [47] = test: Antimicrobial activity against Pseudomonas aeruginosa PAO1 biofilm by Etest method; format: functional
# Pseudomonas aeruginosa [48] = test: Antimicrobial activity against mutS::lox-deficient Pseudomonas aeruginosa PAOMS biofilm by Etest method; format: functional
# Pseudomonas aeruginosa [49] = test: Antimicrobial activity against mutS::lox-deficient Pseudomonas aeruginosa PAOMSB biofilm harboring deletion od C534 in nfxB mutant gene selected at 4 ug/ml of azithromycin after 2 passages by Etest method; format: functional
# Pseudomonas aeruginosa [50] = test: Antimicrobial activity against mucA::lox, mutS::lox-deficient Pseudomonas aeruginosa PAOMSAB biofilm harboring nfxB C89T mutant gene selected at 4 ug/ml of azithromycin after 6 passages by Etest method; format: functional
# Pseudomonas aeruginosa [51] = test: Antimicrobial activity against Pseudomonas aeruginosa PAO1 A biofilm harboring duplication mutation at nucleotide 333 in nfxB gene selected at 0.5 ug/ml of azithromycin by Etest method; format: functional
# Pseudomonas aeruginosa [52] = test: Antimicrobial activity against Pseudomonas aeruginosa PAO1 A biofilm harboring deletion mutation at nucleotide 231-244 in nfxB gene selected at 1 ug/ml of azithromycin after 4 passages by Etest method; format: functional
# Pseudomonas aeruginosa [53] = test: Antimicrobial activity against mutS::lox-deficient Pseudomonas aeruginosa PAOMSA biofilm harboring nfxB G461A mutant gene selected at 4 ug/ml of azithromycin after 5 passages by Etest method; format: functional
structure (smiles),measurement,setting,value
CC[C@H]1OC(=O)[C@H](C)[C@@H](O[C@H]2C[C@@](C)(OC)[C@@H](O)[C@H](C)O2)[C@H](C)[C@@H](O[C@@H]2O[C@H](C)C[C@H](N(C)C)[C@H]2O)[C@](C)(O)C[C@@H](C)CN(C)[C@H](C)[C@@H](O)[C@]1(C)O [AZITHROMYCIN],fold change (FC),Pseudomonas aeruginosa [1],50
same,Activity,Pseudomonas aeruginosa [2],Active
same,Activity,Pseudomonas aeruginosa [3],inactive
same,log10cfu,Pseudomonas aeruginosa [4],4
same,fold change (FC),Pseudomonas aeruginosa [5],1
same,fold change (FC),Pseudomonas aeruginosa [6],1
same,MIC,Pseudomonas aeruginosa [7],128 µg/mL
same,log10cfu,Pseudomonas aeruginosa [8],2
same,Activity,Pseudomonas aeruginosa [9],inactive
same,Activity,Pseudomonas aeruginosa [10],inactive
same,log10cfu,Pseudomonas aeruginosa [11],4
same,Activity,Pseudomonas aeruginosa [12],inactive
same,Activity,Pseudomonas aeruginosa [13],inactive
same,MIC,Pseudomonas aeruginosa [14],128 µg/mL
same,MIC,Pseudomonas aeruginosa [15],128 µg/mL
same,log10cfu,Pseudomonas aeruginosa [16],2
same,Activity,Pseudomonas aeruginosa [17],Active
same,MIC,Pseudomonas aeruginosa [18],128 µg/mL
same,log10cfu,Pseudomonas aeruginosa [19],2
same,fold change (FC),Pseudomonas aeruginosa [20],5000
C[C@@H](O)[C@H]1C(=O)N2C(C(=O)O)=C(SCCNC=N)C[C@H]12 [IMIPENEM ANHYDROUS],MIC,Pseudomonas aeruginosa [21],0.19 µg/mL
same,MIC,Pseudomonas aeruginosa [22],0.5 µg/mL
same,MIC,Pseudomonas aeruginosa [23],0.5 µg/mL
same,MIC,Pseudomonas aeruginosa [24],0.38 µg/mL
same,MIC,Pseudomonas aeruginosa [25],0.38 µg/mL
same,MIC,Pseudomonas aeruginosa [26],0.25 µg/mL
same,MIC,Pseudomonas aeruginosa [27],1 µg/mL
same,MIC,Pseudomonas aeruginosa [28],1 µg/mL
same,MIC,Pseudomonas aeruginosa [29],0.38 µg/mL
same,MIC,Pseudomonas aeruginosa [30],0.38 µg/mL
same,MIC,Pseudomonas aeruginosa [31],0.25 µg/mL
same,MIC,Pseudomonas aeruginosa [32],1 µg/mL
same,MIC,Pseudomonas aeruginosa [33],0.19 µg/mL
same,MIC,Pseudomonas aeruginosa [34],0.38 µg/mL
same,MIC,Pseudomonas aeruginosa [35],0.25 µg/mL
same,MIC,Pseudomonas aeruginosa [36],1 µg/mL
same,MIC,Pseudomonas aeruginosa [37],1.5 µg/mL
same,MIC,Pseudomonas aeruginosa [38],1.5 µg/mL
same,MIC,Pseudomonas aeruginosa [39],1.5 µg/mL
same,MIC,Pseudomonas aeruginosa [40],0.38 µg/mL
same,MIC,Pseudomonas aeruginosa [41],0.25 µg/mL
same,MIC,Pseudomonas aeruginosa [42],0.38 µg/mL
same,MIC,Pseudomonas aeruginosa [43],0.25 µg/mL
same,MIC,Pseudomonas aeruginosa [44],1 µg/mL
same,MIC,Pseudomonas aeruginosa [45],0.25 µg/mL
same,MIC,Pseudomonas aeruginosa [46],1 µg/mL
same,MIC,Pseudomonas aeruginosa [47],1.5 µg/mL
same,MIC,Pseudomonas aeruginosa [48],1.5 µg/mL
same,MIC,Pseudomonas aeruginosa [49],1 µg/mL
same,MIC,Pseudomonas aeruginosa [50],0.38 µg/mL
same,MIC,Pseudomonas aeruginosa [51],0.25 µg/mL
same,MIC,Pseudomonas aeruginosa [52],0.38 µg/mL
same,MIC,Pseudomonas aeruginosa [53],1.5 µg/mL
